Literature values as cited in patent US20230029485A1 (priority 2021, published 2023).

Columns and labels:
Settings in all cases: in vivo
[1] = tested on: metastatic colorectal cancer
SARS-CoV-2 [2] = tested on: SARS-CoV-2
SARS-CoV-2 [3] = tested on: SARS-CoV-2; remark: listed apart in the source

O=c1[nH]cc(F)c(=O)[nH]1 [5-fluorouracil]
objective response rate [1]: around 20%

CCN(CCO)CCCC(C)Nc1ccnc2cc(Cl)ccc12 (stereo not shown) [HCQ, hydroxychloroquine]
developed QT prolongation (SARS-CoV-2 [2]): nine | good clinical outcome and a virological cure (SARS-CoV-2 [2]): 91.7%

CCC(CC)COC(=O)[C@H](C)N[P@](=O)(OC[C@H]1O[C@@](C#N)(c2ccc3c(N)ncnn23)[C@H](O)[C@@H]1O)Oc1ccccc1 [RDV, Remdesivir]
adverse events, share of patients (SARS-CoV-2 [3]): 60.3%
